Laboratory results from ChEMBL document CHEMBL1158969, “Studies on the synthesis of sesquiterpene lactones, 12. Synthesis of (+)-colartin, (+)-arbusculin A, and their C-4 epimers and their biological activities” (1991).
Calls of active or inactive are those of the source.

What was measured:
Type in all cases: functional, organism-based
Brassica juncea [1] = test: Growth regulatory activity on Brassica juncea stem assessed as inhibition of germination and seedling growth at 1000 ppm after 10 days
Brassica juncea [2] = test: Growth regulatory activity on Brassica juncea root assessed as inhibition of germination and seedling growth at 500 ppm after 10 days
Cucumis sativus [3] = test: Growth regulatory activity on Cucumis sativus stem assessed as inhibition of germination and seedling growth at 250 ppm after 10 days
Echinochloa frumentacea [4] = test: Growth regulatory activity on Echinochloa frumentacea stem assessed as inhibition of germination and seedling growth at 1000 ppm after 10 days
Cucumis sativus [5] = test: Growth regulatory activity on Cucumis sativus stem assessed as complete inhibition of germination and seedling growth at 1000 ppm after 10 days
Cucumis sativus [6] = test: Growth regulatory activity on Cucumis sativus root assessed as complete inhibition of germination and seedling growth at 1000 ppm after 10 days
Echinochloa frumentacea [7] = test: Growth regulatory activity on Echinochloa frumentacea root assessed as complete inhibition of germination and seedling growth at 1000 ppm after 10 days
Brassica juncea [8] = test: Growth regulatory activity on Brassica juncea root assessed as complete inhibition of germination and seedling growth at 1000 ppm after 10 days
Cucumis sativus [9] = test: Growth regulatory activity on Cucumis sativus root assessed as complete inhibition of germination and seedling growth at 500 ppm after 10 days
Cucumis sativus [10] = test: Growth regulatory activity on Cucumis sativus root assessed as inhibition of germination and seedling growth at 250 ppm after 10 days
Echinochloa frumentacea [11] = test: Growth regulatory activity on Echinochloa frumentacea root assessed as inhibition of germination and seedling growth at 500 ppm after 10 days
Brassica juncea [12] = test: Growth regulatory activity on Brassica juncea root assessed as inhibition of germination and seedling growth at 1000 ppm after 10 days
Cucumis sativus [13] = test: Growth regulatory activity on Cucumis sativus root assessed as inhibition of germination and seedling growth at 500 ppm after 10 days
Echinochloa frumentacea [14] = test: Growth regulatory activity on Echinochloa frumentacea stem assessed as inhibition of germination and seedling growth at 500 ppm after 10 days
Echinochloa frumentacea [15] = test: Growth regulatory activity on Echinochloa frumentacea root assessed as inhibition of germination and seedling growth at 1000 ppm after 10 days
Cucumis sativus [16] = test: Growth regulatory activity on Cucumis sativus stem assessed as inhibition of germination and seedling growth at 500 ppm after 10 days
Brassica juncea [17] = test: Growth regulatory activity on Brassica juncea stem assessed as inhibition of germination and seedling growth at 250 ppm after 10 days
Brassica juncea [18] = test: Growth regulatory activity on Brassica juncea root assessed as inhibition of germination and seedling growth at 250 ppm after 10 days
Cucumis sativus [19] = test: Growth regulatory activity on Cucumis sativus stem assessed as inhibition of germination and seedling growth at 100 ppm after 10 days
Cucumis sativus [20] = test: Growth regulatory activity on Cucumis sativus root assessed as inhibition of germination and seedling growth at 100 ppm after 10 days
Echinochloa frumentacea [21] = test: Growth regulatory activity on Echinochloa frumentacea stem assessed as complete inhibition of germination and seedling growth at 1000 ppm after 10 days
Brassica juncea [22] = test: Growth regulatory activity on Brassica juncea stem assessed as complete inhibition of germination and seedling growth at 1000 ppm after 10 days
Cucumis sativus [23] = test: Growth regulatory activity on Cucumis sativus stem assessed as inhibition of germination and seedling growth at 1000 ppm after 10 days
Brassica juncea [24] = test: Growth regulatory activity on Brassica juncea stem assessed as complete inhibition of germination and seedling growth at 500 ppm after 10 days
Brassica juncea [25] = test: Growth regulatory activity on Brassica juncea root assessed as complete inhibition of germination and seedling growth at 500 ppm after 10 days
Cucumis sativus [26] = test: Growth regulatory activity on Cucumis sativus stem assessed as complete inhibition of germination and seedling growth at 500 ppm after 10 days
Cucumis sativus [27] = test: Growth regulatory activity on Cucumis sativus root assessed as inhibition of germination and seedling growth at 1000 ppm after 10 days

Measured: growth inhibition (GI)

C[C@@H]1C(=O)O[C@H]2[C@H]1CC[C@@]1(C)CC=C[C@@](C)(O)[C@H]21
active: Brassica juncea [1] | Brassica juncea [2] | Cucumis sativus [3] | Echinochloa frumentacea [4] | Cucumis sativus [5] | Cucumis sativus [6] | Echinochloa frumentacea [7] | Brassica juncea [8] | Cucumis sativus [9] | Cucumis sativus [10] | Echinochloa frumentacea [11]

C[C@@H]1C(=O)O[C@H]2[C@H]1CC[C@@]1(C)CC[C@@H](O)[C@@](C)(O)[C@H]21
active: Brassica juncea [12] | Cucumis sativus [13] | Echinochloa frumentacea [4] | Echinochloa frumentacea [14] | Echinochloa frumentacea [15] | Cucumis sativus [5] | Cucumis sativus [16] | Cucumis sativus [6]

C=C1C(=O)O[C@@H]2[C@@H]3[C@](C)(CCC[C@@]3(C)O)CC[C@@H]12
not listed: Brassica juncea [1] | Brassica juncea [2] | Cucumis sativus [3] | Echinochloa frumentacea [4] | Cucumis sativus [5] | Brassica juncea [12] | Cucumis sativus [13] | Echinochloa frumentacea [15] | Cucumis sativus [16] | Cucumis sativus [27]
active: all other assays above

C[C@@H]1C(=O)O[C@H]2[C@H]1CC[C@@]1(C)CCC[C@@](C)(O)[C@H]21
active: Brassica juncea [2] | Cucumis sativus [3] | Echinochloa frumentacea [14] | Cucumis sativus [16] | Cucumis sativus [6] | Echinochloa frumentacea [7] | Cucumis sativus [9] | Cucumis sativus [10] | Echinochloa frumentacea [21] | Brassica juncea [22] | Cucumis sativus [23] | Echinochloa frumentacea [11]

CC1=CCC[C@]2(C)CC[C@@H]3[C@H](OC(=O)[C@H]3C)[C@@H]12
active: Cucumis sativus [27] | Cucumis sativus [13]
